Results published in US9150592B2, “Heterocyclic nuclear hormone receptor modulators” (AbbVie Inc., priority 2012, dated 2015).

Experiments:
[1] = biological target: T1, Glucocorticoid Receptor (GR) (Homo sapiens, UniProt P04150); assay: GR Fluorescence Polarization Assay (PolarScreen Glucocorticoid Receptor Competitor Assay, Red); conditions: IC50 class ranges, read-out: GR binding
T1 construct: purchased Invitrogen P2893
T1 sequence (P04150 1-777): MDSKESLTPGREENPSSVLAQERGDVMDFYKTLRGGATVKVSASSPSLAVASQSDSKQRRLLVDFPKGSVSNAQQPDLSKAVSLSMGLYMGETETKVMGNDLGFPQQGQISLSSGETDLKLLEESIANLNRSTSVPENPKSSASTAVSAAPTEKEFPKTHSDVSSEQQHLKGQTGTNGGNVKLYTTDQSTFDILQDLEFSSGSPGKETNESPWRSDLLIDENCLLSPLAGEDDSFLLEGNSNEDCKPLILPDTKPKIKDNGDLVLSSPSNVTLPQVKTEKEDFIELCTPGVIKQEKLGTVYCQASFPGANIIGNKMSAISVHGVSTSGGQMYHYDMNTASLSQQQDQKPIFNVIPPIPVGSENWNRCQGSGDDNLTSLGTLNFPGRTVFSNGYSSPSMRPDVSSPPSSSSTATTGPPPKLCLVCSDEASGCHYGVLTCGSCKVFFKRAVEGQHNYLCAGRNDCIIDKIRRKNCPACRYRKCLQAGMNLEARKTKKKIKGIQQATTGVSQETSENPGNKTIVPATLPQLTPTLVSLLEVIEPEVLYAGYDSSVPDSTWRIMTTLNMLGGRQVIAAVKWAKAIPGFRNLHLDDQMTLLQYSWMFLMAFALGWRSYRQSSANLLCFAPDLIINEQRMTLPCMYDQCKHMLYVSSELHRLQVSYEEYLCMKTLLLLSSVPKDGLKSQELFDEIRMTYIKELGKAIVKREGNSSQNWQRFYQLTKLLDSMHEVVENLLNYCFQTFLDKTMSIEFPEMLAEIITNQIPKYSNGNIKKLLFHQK
How it was run: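 Competitive fluorescence-polarization assay using a red fluorescent glucocorticoid tracer with human GR in kit buffer. Compounds serially diluted 1:4 in DMSO, incubated with tracer and GR overnight at 4° C, then polarization read.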

[2] = test system: IL-6 in A549 cells stimulated with IL-1β; assay: A549 Cell Assay to Measure Inflammation Markers (inhibition of IL-1β-induced IL-6); type: cell-based; conditions: Homo sapiens, A549, A549 Cell Assay to Measure Inflammation Markers; intrinsic activity, Emax class ranges
How it was run: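 Compound pre-incubated with A549 cells 1 h at 37 °C, then stimulated with IL-1β (1 ng/mL final, 0.1% DMSO). Supernatant IL-6 quantified by MSD immunoassay after a further incubation. IC50 and Emax derived.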

| Structure (SMILES) | IC50 [1] [nM] | Emax [2] [%] |
| --- | --- | --- |
| Cn1nc(C2CCCC2)c2c1NCC(C)(C)SC2c1ccc(Cl)cc1Cl (stereo not drawn) [D.79] | < 100 | < 50 |
| CCn1nc(-c2ccccn2)c2c1N[C@@H](C)CS[C@H]2c1ccc(C#CC(C)(C)O)cc1C (single isomer, unassigned) [M.32, 4-(4-(1-ethyl-7-methyl-3-(pyridin-2-yl)-4,6,7,8-tetrahydro-1H-pyrazolo[3,4-e][1,4]thiazepin-4-yl)-3-methylphenyl)-2-methylbut-3-yn-2-ol] | < 100 | > 70 |
| CCn1nc(-c2ccccn2)c2c1NCCSC2c1ccc(Br)cc1C (stereo not drawn) [D.30, 4-(4-bromo-2-methyl-phenyl)-1-ethyl-3-(2-pyridyl)-4,6,7,8-tetrahydropyrazolo[3,4-e][1,4]thiazepine] | < 100 | > 70 |
| Cn1nc(-c2ccccn2)c2c1NCCSC2c1ccc(Br)cc1Cl (stereo not drawn) | < 100 | < 50 |
| Cc1ncccc1NC(=O)c1ccc(C2SC(C)(C)CNc3c2c(C)nn3C)c(Cl)c1 (single isomer, unassigned) [M.8, 3-chloro-N-(2-methylpyridin-3-yl)-4-(1,3,6,6-tetramethyl-4,6,7,8-tetrahydro-1H-pyrazolo[3,4-e][1,4]thiazepin-4-yl)benzamide] | 1000 to 10000 | < 50 |
| Cc1cc(Cl)ccc1[C@H]1SC(C)(C)[C@@H](c2ccccc2)Nc2c1c(C)nn2C (racemic) [K.2] | 1000 to 10000 | < 50 |
| Cn1nc(-c2ccccn2)c2c1NCCSC2c1ccc(C(=O)Nc2cccnc2)cc1Cl (stereo not drawn) [H.3] | 100 to 1000 | < 50 |
| Cc1cc(C#N)ccc1C1SCCNc2onc(-c3ccccn3)c21 (stereo not drawn) [G.9] | < 100 | < 50 |
| Cc1ncccc1NC(=O)c1ccc(C2SCCNc3c2c(-c2ccccn2)nn3C)cc1 (stereo not drawn) [F.3] | 1000 to 10000 | < 50 |
| Cc1nn(C)c2c1C(c1ccc(Cl)cc1Cl)S(=O)(=O)C(C)(C)CN2 (stereo not drawn) [L.4] | 1000 to 10000 | < 50 |
| CC(C)c1nn(C)c2c1C(c1ccc(Cl)cc1Cl)SCCN2 (stereo not drawn) [D.84] | 100 to 1000 | < 50 |
| Cc1cc(C#N)ccc1C1SCC(C)Nc2c1c(-c1ccccn1)nn2C (stereo not drawn) [G.7] | < 100 | > 70 |
| CC(=O)N1CCC(C2SCCNc3c2c(-c2ccccn2)nn3C)CC1 (stereo not drawn) | > 10000 | < 50 |
| Cn1nc(-c2ccccn2)c2c1NCCS[C@H]2c1ccc(Br)cc1Cl (single isomer, unassigned) [M.2, 4-(4-bromo-2-chlorophenyl)-1-methyl-3-(pyridin-2-yl)-4,6,7,8-tetrahydro-1H-pyrazolo[3,4-e][1,4]thiazepine] | < 100 | < 50 |
| Cc1cc(C(F)(F)F)ccc1C1SCCNc2c1c(-c1ccccn1)nn2C (stereo not drawn) [D.41] | < 100 | < 50 |
| Cn1nc(-c2ccccc2)c2c1NCCSC2c1ccc(Cl)cc1Cl (stereo not drawn) [D.83] | < 100 | < 50 |
| CCn1nc(-c2ccccn2)c2c1NCCSC2c1ccc(C(=O)Nc2n[nH]cc2C#N)cc1C (stereo not drawn) [S.8] | < 100 | > 50 |
| Cc1cc(C#CCCO)ccc1[C@@H]1SC[C@H](C)Nc2c1c(-c1ccccn1)nn2C (single isomer, unassigned) [M.54, 4-(4-(1,7-dimethyl-3-(pyridin-2-yl)-4,6,7,8-tetrahydro-1H-pyrazolo[3,4-e][1,4]thiazepin-4-yl)-3-methylphenyl)but-3-yn-1-ol] | < 100 | < 50 |
| Cn1nc(-c2ccccn2)c2c1NCCSC2c1ccc(Cl)cc1F (stereo not drawn) [D.103] | < 100 | < 50 |
| Cc1cc(Br)ccc1[C@H]1SC[C@@H](C(F)(F)F)Nc2c1c(-c1ccccn1)nn2C (racemic) | < 100 | < 50 |
| Cn1nc(-c2nccs2)c2c1NCCSC2c1ccc(Cl)cc1Cl (stereo not drawn) [D.16] | < 100 | < 50 |
| Cn1nc(-c2ccccn2)c2c1NCCS[C@@H]2c1ccc(Br)cc1Cl (single isomer, unassigned) [M.1, 4-(4-bromo-2-chlorophenyl)-1-methyl-3-(pyridin-2-yl)-4,6,7,8-tetrahydro-1H-pyrazolo[3,4-e][1,4]thiazepine] | 100 to 1000 | < 50 |
| Cn1nc(-c2ccccn2)c2c1NCCSC2c1ccc(C(=O)O)cc1Cl (stereo not drawn) | 100 to 1000 | < 50 |

| Structure (SMILES) | IC50 [1] [nM] | Emax [2] [%] |
| --- | --- | --- |
| COc1ccc(C2SCCNc3c2c(-c2ccccn2)nn3C)c(C)c1 (stereo not drawn) [D.10] | < 100 | < 50 |
| Cn1nc(C(C)(C)C)c2c1NCCSC2c1ccc(Cl)cc1Cl (stereo not drawn) [D.85] | 100 to 1000 | < 50 |
| Cc1ccc(C)c(C2SCCNc3c2c(-c2ccccn2)nn3C)c1 (stereo not drawn) [D.20] | < 100 | < 50 |
| CCn1nc(-c2ccccn2)c2c1NCCSC2c1ccc(C(=O)Nc2cc(C)nn2C)cc1C (stereo not drawn) [S.2] | < 100 | > 70 |
| CCn1nc(-c2ccccn2)c2c1NCCSC2c1ccc(C#N)cc1C (stereo not drawn) [G.10, 3-methyl-4-(1-ethyl-3-(pyridin-2-yl)-4,6,7,8-tetrahydro-1H-pyrazolo[3,4-e][1,4]thiazepin-4-yl)benzonitrile] | < 100 | > 70 |
| Cc1cc(Br)ccc1C1SC(C)CNc2c1c(C1CC1)nn2C (stereo not drawn) [D.51, 4-(4-bromo-2-methyl-phenyl)-3-cyclopropyl-1,6-dimethyl-4,6,7,8-tetrahydropyrazolo[3,4-e][1,4]thiazepine] | 100 to 1000 | < 50 |
| Cc1cc(Br)ccc1C1SCCNc2onc(-c3ccccn3)c21 (stereo not drawn) [D.44, 4-(4-bromo-2-methyl-phenyl)-3-(2-pyridyl)-4,6,7,8-tetrahydroisoxazolo-[5,4-e][1,4]thiazepine] | < 100 | < 50 |
| COC(=O)c1ccc(C)c(C2SCCNc3c2c(-c2ccccn2)nn3C)c1 (stereo not drawn) [E.3, methyl 4-methyl-3-[1-methyl-3-(2-pyridyl)-4,6,7,8-tetrahydropyrazolo[3,4-e][1,4]thiazepin-4-yl]benzoate] | > 10000 | < 50 |
| CCn1nc(-c2ccccn2)c2c1NCCSC2c1ccc(C(=O)Nc2nnc[nH]2)cc1C (stereo not drawn) [S.5] | < 100 | > 70 |
| CCn1nc(-c2ccccn2)c2c1NCCSC2c1ccc(C(=O)Nc2nncs2)cc1C (stereo not drawn) [S.3] | < 100 | < 50 |
| Cc1cc2c(cnn2-c2ccc(F)cc2)cc1C1SCC(=O)Nc2c1c(-c1ccccn1)nn2C (racemic) | < 100 | > 70 |
| Cc1ccc(Br)cc1C1SC(C)(C)CNc2c1c(C1CC1)nn2C (stereo not drawn) [D.55, 4-(5-bromo-2-methyl-phenyl)-3-cyclopropyl-1,6,6-trimethyl-7,8-dihydro-4H-pyrazolo[3,4-e][1,4]thiazepine] | < 100 | < 50 |
| Cc1cc(Br)ccc1[C@H]1SC[C@H](C(N)=O)Nc2c1c(-c1ccccn1)nn2C (racemic) | 100 to 1000 | < 50 |
| Cc1nn(CC(O)C(F)(F)F)c2c1C(c1ccc(Cl)cc1Cl)SC(C)(C)CN2 (single isomer, unassigned) [M.5, 3-(4-(2,4-dichlorophenyl)-3,6,6-trimethyl-4,6,7,8-tetrahydro-1H-pyrazolo[3,4-e][1,4]thiazepin-1-yl)-1,1,1-trifluoropropan-2-ol] | 1000 to 10000 | < 50 |
| Cc1ccc(C#N)cc1C1SCCNc2c1c(-c1ccccn1)nn2C (stereo not drawn) [G.1, 4-methyl-3-[1-methyl-3-(2-pyridyl)-4,6,7,8-tetrahydropyrazolo[3,4-e][1,4]thiazepin-4-yl]benzonitrile] | 100 to 1000 | < 50 |
| CCn1nc(-c2ccccn2)c2c1NCCSC2c1ccc(C(=O)Nc2nnc(C)s2)cc1C (stereo not drawn) [S.4] | < 100 | < 50 |
| Cn1nc(-c2ccccn2)c2c1NCCSC2c1ccc(Cl)cc1CF (stereo not drawn) [D.39] | < 100 | > 60 |
| Cn1nc(-c2cccs2)c2c1NCCSC2c1ccc(Cl)cc1Cl (stereo not drawn) [D.101] | < 100 | < 50 |
| Cn1nc([C@@H]2CCCN2)c2c1NCCSC2c1ccc(Cl)cc1Cl (mixture of isomers) | > 10000 | < 50 |
| Cn1nc(C2CC2)c2c1NCC(C)(C)SC2c1ccc(Cl)cc1C(F)(F)F (stereo not drawn) [D.48] | 100 to 1000 | < 50 |
| Cn1nc(-c2ccccn2)c2c1NCCSC2c1ccc(Cl)cc1Cl (stereo not drawn) [D.8, 4-(2,4-dichlorophenyl)-1-methyl-3-(2-pyridyl)-4,6,7,8-tetrahydropyrazolo[3,4-e][1,4]thiazepine] | < 100 | < 50 |
| Cc1nn(C)c2c1C(c1ccc(Cl)cc1Cl)SC1(CCC1)CN2 (stereo not drawn) [D.66] | < 100 | < 50 |
